Measurements: patent US6875760B2 (Novo Nordisk A/S, priority 1999, dated 2005)
pIC50: −log10 of the molar value.

Target: T1, human glucagon receptor (Homo sapiens, UniProt P47871)
T1 construct: expressed in transfected cells; host or cells: BHK (baby hamster kidney) cells
Experiment: Glucagon Binding Assay (III)
Details: BHK cell membranes, WGA SPA beads, 125I-glucagon; read-out: Glu Bd Assay (III) IC50
How it was run: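 Non-specific binding was set with 500 nM glucagon in this SPA-type binding assay using WGA beads. The receptor source was a membrane preparation, kept on ice or at 4 °C, from BHK cells transfected with the human receptor. Scintillation counts were taken after 4 hours of shaking and 8–48 hours of settling.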

T1 sequence (P47871 26-477): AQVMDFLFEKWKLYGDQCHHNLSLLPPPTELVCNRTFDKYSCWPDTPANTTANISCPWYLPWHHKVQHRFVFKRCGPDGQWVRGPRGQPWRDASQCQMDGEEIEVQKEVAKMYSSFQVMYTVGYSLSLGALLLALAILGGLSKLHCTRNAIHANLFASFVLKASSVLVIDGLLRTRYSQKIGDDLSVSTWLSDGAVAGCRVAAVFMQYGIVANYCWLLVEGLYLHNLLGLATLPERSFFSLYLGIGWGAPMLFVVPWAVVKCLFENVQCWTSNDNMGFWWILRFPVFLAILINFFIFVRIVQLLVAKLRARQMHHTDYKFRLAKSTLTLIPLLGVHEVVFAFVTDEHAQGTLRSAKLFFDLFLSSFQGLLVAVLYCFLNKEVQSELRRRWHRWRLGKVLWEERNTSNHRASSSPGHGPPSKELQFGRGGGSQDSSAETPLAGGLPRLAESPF

Q: `CC(C)(C)c1ccc(N(Cc2ccc(C(=O)Nc3nn[nH]n3)cc2)C(=O)Nc2cccc(S(C)(=O)=O)c2)cc1` [Example 449, 4-[1-(4-tert-Butylphenyl)-3-(3-methylsulfonylphenyl)ureidomethyl]-N-(2H-tetrazol-5-yl)benzamide] was tested. Which pIC50 did it give?
A: 6.71

Q: How did the pIC50 turn out when `CS(=O)(=O)c1cccc(NC(=O)N(Cc2ccc(C(=O)Nc3nn[nH]n3)cc2)c2ccc(OC(F)(F)F)cc2)c1` [Example 450, 4-[3-(3-Methylsulfonylphenyl)-1-(4-trifluoromethoxyphenyl)ureidomethyl]-N-(2H-tetrazol-5-yl)benzamide] was run?
A: 5.75

Q: With `CS(=O)(=O)c1ccc(NC(=O)N(Cc2ccc(C(=O)Nc3nn[nH]n3)cc2)c2ccc(OC(F)(F)F)cc2)cc1` [Example 451, 4-[3-(4-Methylsulfonylphenyl)-1-(4-trifluoromethoxyphenyl)ureidomethyl]-N-(2H-tetrazol-5-yl)benzamide] as the molecule, how does the pIC50 read?
A: 5.46

Q: `CCS(=O)(=O)c1cccc(NC(=O)N(Cc2ccc(C(=O)Nc3nn[nH]n3)cc2)c2ccc(OC(F)(F)F)cc2)c1` [Example 452, 4-[3-(3-Ethylsulfonylphenyl)-1-(4-trifluoromethoxyphenyl)ureidomethyl]-N-(2H-tetrazol-5-yl)benzamide] was tested. Which pIC50 did it give?
A: 5.85

Q: With `CCS(=O)(=O)c1cccc(NC(=O)N(Cc2ccc(C(=O)Nc3nn[nH]n3)cc2)c2ccc(C3CCCCC3)cc2)c1` [Example 453, 4-[1-(4-Cyclohexylphenyl)-3-(3-ethylsulfonylphenyl)ureidomethyl]-N-(2H-tetrazol-5-yl)benzamide] as the molecule, how does the pIC50 read?
A: 7.14

Q: `CCS(=O)(=O)c1cccc(NC(=O)N(Cc2ccc(C(=O)Nc3nn[nH]n3)cc2)c2ccc(C(C)(C)C)cc2)c1` [Example 454, 4-[1-(4-tert-Butylphenyl)-3-(3-ethylsulfonylphenyl)ureidomethyl]-N-(2H-tetrazol-5-yl)benzamide] was tested. Which pIC50 did it give?
A: 6.67

Q: With `O=C(Nc1nn[nH]n1)c1ccc(CN(C(=O)Nc2ccc(S(=O)(=O)C(F)(F)F)cc2)c2ccc(C3CCCCC3)cc2)cc1` [Example 455, 4-[1-(4-Cyclohexylphenyl)-3-(4-trifluoromethylsulfonylphenyl)ureidomethyl]-N-(2H-tetrazol-5-yl)benzamide] as the molecule, how does the pIC50 read?
A: 7.28

Q: How did the pIC50 turn out when `CC(C)(C)c1ccc(N(Cc2ccc(C(=O)Nc3nn[nH]n3)cc2)C(=O)Nc2cccc(C(=O)O)c2)cc1` [Example 456, 3-{3-(4-tert-Butylphenyl)-3-[4-(2H-tetrazol-5-ylcarbamoyl)benzyl]ureido}benzoic acid] was run?
A: 5.55

Q: With `CC(C)(C)c1ccc(N(Cc2ccc(C(=O)Nc3nn[nH]n3)cc2)C(=O)Nc2cccc(C(=O)Oc3c(F)c(F)c(F)c(F)c3F)c2)cc1` [Example 457, 3-{3-(4-tert-Butylphenyl)-3-[4-(2H-tetrazol-5-ylcarbamoyl)benzyl]ureido}benzoic acid pentafluorophenyl ester] as the molecule, how does the pIC50 read?
A: 6.08

Q: How did the pIC50 turn out when `CNC(=O)c1cccc(NC(=O)N(Cc2ccc(C(=O)Nc3nn[nH]n3)cc2)c2ccc(C(C)(C)C)cc2)c1` [Example 458, N-Methyl-3-{3-(4-tert-butylphenyl)-3-[4-(2H-tetrazol-5-ylcarbamoyl)benzyl]ureido}benzamide] was run?
A: 5.74

Q: With `CC(C)(C)c1ccc(N(Cc2ccc(C(=O)Nc3nn[nH]n3)cc2)C(=O)Nc2cccc(C(N)=O)c2)cc1` [Example 459, 3-{3-(4-tert-Butylphenyl)-3-[4-(2H-tetrazol-5-ylcarbamoyl)benzyl]ureido}benzamide] as the molecule, how does the pIC50 read?
A: 5.68

Q: How did the pIC50 turn out when `CCNC(=O)c1cccc(NC(=O)N(Cc2ccc(C(=O)Nc3nn[nH]n3)cc2)c2ccc(C(C)(C)C)cc2)c1` [Example 460, N-Ethyl-3-{3-(4-tert-butylphenyl)-3-[4-(2H-tetrazol-5-ylcarbamoyl)benzyl]ureido}benzamide] was run?
A: 5.76

Q: With `CN(C)C(=O)c1cccc(NC(=O)N(Cc2ccc(C(=O)Nc3nn[nH]n3)cc2)c2ccc(C(C)(C)C)cc2)c1` [Example 461, N,N-Dimethyl-3-{3-(4-tert-butylphenyl)-3-[4-(2H-tetrazol-5-ylcarbamoyl)benzyl]ureido}benzamide] as the molecule, how does the pIC50 read?
A: 6.12

Q: How did the pIC50 turn out when `CCN(CC)C(=O)c1cccc(NC(=O)N(Cc2ccc(C(=O)Nc3nn[nH]n3)cc2)c2ccc(C(C)(C)C)cc2)c1` [Example 462, N,N-Diethyl-3-{3-(4-tert-butylphenyl)-3-[4-(2H-tetrazol-5-ylcarbamoyl)benzyl]ureido}benzamide] was run?
A: 5.94

Q: With `CN(C)C(=O)c1cccc(NC(=O)N(Cc2ccc(C(=O)Nc3nn[nH]n3)cc2)c2ccc(C3CCCCC3)cc2)c1` [Example 463, N,N-Dimethyl-3-{3-(4-cyclohexylphenyl)-3-[4-(2H-tetrazol-5-ylcarbamoyl)benzyl]ureido}benzamide] as the molecule, how does the pIC50 read?
A: 6.59

Q: `CCCCN(C)C(=O)c1cccc(NC(=O)N(Cc2ccc(C(=O)Nc3nn[nH]n3)cc2)c2ccc(C3CCCCC3)cc2)c1` [Example 464, N-Butyl-N-methyl-3-{3-(4-cyclohexylphenyl)-3-[4-(2H-tetrazol-5-ylcarbamoyl)benzyl]ureido}benzamide] was tested. Which pIC50 did it give?
A: 7.02

Q: How did the pIC50 turn out when `CCCCNC(=O)c1cccc(NC(=O)N(Cc2ccc(C(=O)Nc3nn[nH]n3)cc2)c2ccc(C3CCCCC3)cc2)c1` [Example 465, N-Butyl-3-{3-(4-cyclohexylphenyl)-3-[4-(2H-tetrazol-5-ylcarbamoyl)benzyl]ureido}benzamide] was run?
A: 6.22

Q: How did the pIC50 turn out when `CS(=O)(=O)c1ccccc1NC(=O)N(Cc1ccc(C(=O)Nc2nn[nH]n2)cc1)c1ccc(C2CCCCC2)cc1` [Example 466, 4-[1-(4-Cyclohexylphenyl)-3-(2-methylsulfonylphenyl)ureidomethyl]-N-(2H-tetrazol-5-yl)benzamide] was run?
A: 5.57

Q: With `CNS(=O)(=O)c1ccc(Cl)c(NC(=O)N(Cc2ccc(C(=O)Nc3nn[nH]n3)cc2)c2ccc(C3CCCCC3)cc2)c1` [Example 467, 4-[3-(2-Chloro-5-methylsulfamoylphenyl)-1-(4-cyclohexylphenyl)ureidomethyl]-N-(2H-tetrazol-5-yl)benzamide] as the molecule, how does the pIC50 read?
A: 6.11

Q: How did the pIC50 turn out when `CC(C)c1noc(-c2cccc(NC(=O)N(Cc3ccc(C(=O)Nc4nn[nH]n4)cc3)c3ccc(C4CCCCC4)cc3)c2)n1` [Example 468, 4-{1-(4-Cyclohexylphenyl)-3-[3-(3-isopropyl-[1,2,4]oxadiazol-5-yl)phenyl]ureidomethyl}-N-(2H-tetrazol-5-yl)benzamide] was run?
A: 7.64

Q: `CS(=O)(=O)c1cccc(NC(=O)N(Cc2ccc(C(=O)NCCC(=O)O)cc2)c2ccc(C3CCCCC3)cc2)c1` [Example 469, 3-{4-[1-(4-Cyclohexylphenyl)-3-(3-methylsulfonylphenyl)ureidomethyl]benzoylamino}propionic acid] was tested. Which pIC50 did it give?
A: 6.20

Q: How did the pIC50 turn out when `O=C(Nc1nn[nH]n1)c1ccc(CN(C(=O)Nc2cccc(S(=O)(=O)CC3CC3)c2)c2ccc(C3CCCCC3)cc2)cc1` [Example 470] was run?
A: 6.94

Q: With `O=C(Nc1nn[nH]n1)c1ccc(CN(C(=O)Nc2cccc(S(=O)(=O)C3CCCC3)c2)c2ccc(C3CCCCC3)cc2)cc1` [Example 471] as the molecule, how does the pIC50 read?
A: 6.60

Q: `C[S+]([O-])c1cccc(NC(=O)N(Cc2ccc(C(=O)Nc3nn[nH]n3)cc2)c2ccc(C3CCCCC3)cc2)c1` (stereo not drawn) [Example 472, 4-[1-(4-Cyclohexylphenyl)-3-(3-methylsulfinylphenyl)ureidomethyl]-N-(2H-tetrazol-5-yl)benzamide] was tested. Which pIC50 did it give?
A: 6.59

Q: `CC(C)(C)C1CCC(N(Cc2ccc(C(=O)Nc3nn[nH]n3)cc2)C(=O)c2cc3ccccc3s2)CC1` (stereo not drawn) [Example 473, Benzo[b]thiophene-2-carboxylic acid (4-tert-butylcyclohexyl)-[4-(2H-tetrazol-5-ylcarbamoyl)benzyl]amide] was tested. Which pIC50 did it give?
A: 5.82

Q: `CC(C)(C)C1CCC(N(Cc2ccc(C(=O)Nc3nn[nH]n3)cc2)C(=O)C2=CCc3ccccc32)CC1` (stereo not drawn) [Example 474, 3H-Indene-1-carboxylic acid (4-tert-butylcyclohexyl)-[4-(2H-tetrazol-5-ylcarbamoyl)benzyl]amide] was tested. Which pIC50 did it give?
A: 5.90

Q: How did the pIC50 turn out when `CC(C)(C)C1CCC(N(Cc2ccc(C(=O)Nc3nn[nH]n3)cc2)C(=O)c2cc3ccccc3o2)CC1` (stereo not drawn) [Example 475, Benzofuran-2-carboxylic acid (4-tert-butylcyclohexyl)-[4-(2H-tetrazol-5-ylcarbamoyl)benzyl]amide] was run?
A: 6.05

Q: How did the pIC50 turn out when `CC(C)(C)C1CCC(N(Cc2ccc(C(=O)Nc3nn[nH]n3)cc2)C(=O)/C=C/c2cccs2)CC1` (stereo not drawn) [Example 476, 4-{[(4-tert-Butylcyclohexyl)-(3-thiophen-2-ylacryloyl)amino]methyl}-N-(2H-tetrazol-5-yl)benzamide] was run?
A: 6.02

Q: With `O=C(Nc1nn[nH]n1)c1ccc(CN(CC(c2ccccc2)c2ccccc2)C(=O)/C=C/c2c(Cl)cccc2Cl)cc1` [Example 478, 4-{[[3-(2,6-Dichlorophenyl)acryloyl]-(2,2-diphenylethyl)amino]methyl}-N-(2H-tetrazol-5-yl)benzamide] as the molecule, how does the pIC50 read?
A: 5.53

Q: `CC(C)(C)c1ccc(N(Cc2ccc(C(=O)Nc3nn[nH]n3)cc2)C(=O)/C=C/c2c(Cl)cccc2Cl)cc1` [Example 479, 4-({(4-tert-butylphenyl)-[3-(2,6-dichlorophenyl)acryloyl]amino}methyl)-N-(2H-tetrazol-5-yl)benzamide] was tested. Which pIC50 did it give?
A: 6.09

Q: `O=C(Nc1nn[nH]n1)c1ccc(CN(C(=O)/C=C/c2c(Cl)cccc2Cl)c2ccc(C3CCCCC3)cc2)cc1` [Example 480, 4-({(4-Cyclohexylphenyl)-[3-(2,6-dichlorophenyl)acryloyl]amino}methyl)-N-(2H-tetrazol-5-yl)benzamide] was tested. Which pIC50 did it give?
A: 6.56

Q: With `O=C(Nc1nn[nH]n1)c1ccc(CN(C(=O)c2cccc([N+](=O)[O-])c2)c2ccc(C3CCCCC3)cc2)cc1` [Example 481, 4-{[(4-Cyclohexylphenyl)-(3-nitrobenzoyl)amino]methyl}-N-(2H-tetrazol-5-yl)benzamide] as the molecule, how does the pIC50 read?
A: 5.70

Q: How did the pIC50 turn out when `CSc1cccc(O)c1C(=O)N(Cc1ccc(C(=O)Nc2nn[nH]n2)cc1)c1ccc(C2CCCCC2)cc1` [Example 482, 4-{[(4-Cyclohexylphenyl)-(2-hydroxy-6-methylsulfanylbenzoyl)amino]methyl}-N-(2H-tetrazol-5-yl)benzamide] was run?
A: 6.52
